Laboratory results from ChEMBL document CHEMBL1123117, “Synthesis and antiinflammatory and analgesic activity of 5-aroyl-1,2-dihydro-3H-pyrrolo[1,2-a]pyrrole-1-carboxylic acids and related compounds” (J Med Chem, 1985).

Tests used:
physchem [1] = conditions: octanol/water
Description: Partition coefficient (logP) (HPLC)

physchem [2] = assay: physchem
Description: Dissociation constant (pKa)

Mus musculus [3] = species on record: Mus musculus; assay: […] activity using mouse writhing assay.; type: functional
in vivo = conditions: rat
Mus musculus [4] = species on record: Mus musculus; assay: animal or person
Description: Effective dose for mouse writhing assay

Rattus norvegicus [5] = species on record: Rattus norvegicus; assay: animal or person
Description: Effective dose for cotton pellet assay

Rattus norvegicus [6] = species on record: Rattus norvegicus; assay: animal or person; remark: listed apart in the source
Description: Effective dose for rat paw assay

Rattus norvegicus [7] = species on record: Rattus norvegicus; assay: animal or person; conditions: 168 h
Description: Effective dose causing 50 % gastrointestinal erosion using seven-day chronic assay.

Rattus norvegicus [8] = species on record: Rattus norvegicus; assay: animal or person; conditions: 168 h, read-out: MED
Description: Minimum effective dose causing gastrointestinal erosion using seven-day chronic assay.

Rattus norvegicus [9] = species on record: Rattus norvegicus; assay: animal or person; remark: listed apart in the source
Description: Effective dose for adjuvant arthritis assay

[10] = Therapeutic ratio as the ratio of MED value to that of ED30 for the carrageenan rat paw assay.; type: ADME; conditions: read-out: Therapeutic ratio
Rattus norvegicus [11] = species on record: Rattus norvegicus; assay: Antiinflammatory activity using adjuvant arthritis assay; type: functional

Row | Compound | logP (physchem [1]) | further results
1 | C=CCOc1ccc(C(=O)c2ccc3n2CCC3C(=O)O)cc1 (configuration not stated) | 3.48 | –
2 | C[S+]([O-])c1ccc(C(=O)c2ccc3n2CCC3C(=O)O)cc1 (configuration not stated) | 1.08 | –
3 | O=C(c1ccc(Cl)cc1)c1ccc2n1CCCC2C(=O)O (configuration not stated) | 3.6 | –
4 | O=C(c1ccc2ccccc2c1)c1ccc2n1CCC2C(=O)O (configuration not stated) | 3.97 | pKa (physchem [2]): 3.44
5 | O=C(c1ccc(Br)cc1)c1ccc2n1CCC2C(=O)O (configuration not stated) | 3.6 | –
6 | COc1ccc(C(=O)c2ccc3n2CCCC3C(=O)O)cc1 (configuration not stated) | 2.9 | –
7 | O=C(c1cccc(F)c1)c1ccc2n1CCC2C(=O)O (configuration not stated) | 2.9 | pKa (physchem [2]): 3.46
8 | CC(C)C(=O)Nc1cccc(C(=O)c2ccc3n2CCC3C(=O)O)c1 (configuration not stated) | 2.57 | –
9 | O=C(c1cccc(C(F)(F)F)c1)c1ccc2n1CCC2C(=O)O (configuration not stated) | 3.69 | –
10 | C=Cc1ccc(C(=O)c2ccc3n2CCC3C(=O)O)cc1 (configuration not stated) | 3.47 | Activity (Mus musculus [3]): ~200; selectivity ratio (in vivo): 18; ED50 (Mus musculus [4]): 70 mg/kg; ED30 (Rattus norvegicus [5]): 3 mg/kg; ED30 (Rattus norvegicus [6]): 15 mg/kg; ED50 (Rattus norvegicus [7]): 13 mg/kg/day; minimal effective dose (Rattus norvegicus [8]): 5 mg/kg/day; ED50 (Rattus norvegicus [9]): 1.7 mg/kg
11 | O=C(c1ccccc1)c1ccc2n1CC(C(=O)O)C2 (configuration not stated) | 2.57 | –
12 | O=C(c1ccc(F)cc1F)c1ccc2n1CCC2C(=O)O (configuration not stated) | 2.59 | –
13 | O=C(c1cccc(O)c1)c1ccc2n1CCC2C(=O)O (configuration not stated) | 2.18 | –
14 | N#Cc1cccc(C(=O)c2ccc3n2CCC3C(=O)O)c1 (configuration not stated) | 2.14 | –
15 | O=C(c1ccc(Cl)cc1Cl)c1ccc2n1CCC2C(=O)O (configuration not stated) | 3.56 | –
16 | COc1cccc(C(=O)c2ccc3n2CCC3C(=O)O)c1 (configuration not stated) | 2.74 | –
17 | O=C(c1ccc(F)cc1)c1ccc2n1CCCCC2C(=O)O (configuration not stated) | 3.32 | –
18 | O=C(c1ccccc1O)c1ccc2n1CCC2C(=O)O (configuration not stated) | 2.94 | –

Row | Compound | logP (physchem [1]) | further results
19 | CC(=O)c1ccc(C(=O)c2ccc3n2CCC3C(=O)O)cc1 (configuration not stated) | 2.27 | –
20 | O=C(c1ccccc1)c1ccc2n1CCCCC2C(=O)O (configuration not stated) | 3.17 | –
21 | O=C(c1ccccc1Cl)c1ccc2n1CCC2C(=O)O (configuration not stated) | 2.71 | pKa (physchem [2]): 4.33
22 | O=C(c1ccccc1)c1ccc2n1CCC2C(=O)O (configuration not stated) [KETOROLAC] | 2.72 | selectivity ratio [10]: 18; pKa (physchem [2]): 3.49; ED50 (Mus musculus [4]): 70 mg/kg; ED30 (Rattus norvegicus [5]): 3 mg/kg; ED30 (Rattus norvegicus [6]): 15 mg/kg; ED50 (Rattus norvegicus [7]): 13 mg/kg/day; minimal effective dose (Rattus norvegicus [8]): 5 mg/kg/day; ED50 (Rattus norvegicus [9]): 1.7 mg/kg
23 | Cc1ccc(C(=O)c2ccc3n2CCC3C(=O)O)cc1 (configuration not stated) | 3.24 | selectivity ratio [10]: 8; pKa (physchem [2]): 3.44; ED50 (Mus musculus [4]): 70 mg/kg; ED30 (Rattus norvegicus [5]): 3 mg/kg; ED30 (Rattus norvegicus [6]): 15 mg/kg; ED50 (Rattus norvegicus [7]): 15 mg/kg/day; minimal effective dose (Rattus norvegicus [8]): 3 mg/kg/day; ED50 (Rattus norvegicus [9]): 1.7 mg/kg
24 | O=C(Cc1ccccc1)c1ccc2n1CCC2C(=O)O (configuration not stated) | 2.52 | –
25 | C#Cc1ccc(C(=O)c2ccc3n2CCC3C(=O)O)cc1 (configuration not stated) | 3.33 | –
26 | C#CCOc1ccc(C(=O)c2ccc3n2CCC3C(=O)O)cc1 (configuration not stated) | 3.63 | –
27 | O=C(c1cccc(Cl)c1)c1ccc2n1CCC2C(=O)O (configuration not stated) | 3.48 | pKa (physchem [2]): 3.44
28 | CCOc1ccc(C(=O)c2ccc3n2CCC3C(=O)O)cc1 (configuration not stated) | 3.3 | pKa (physchem [2]): 3.46
29 | CC(C)(C)C(=O)c1ccc2n1CCC2C(=O)O (configuration not stated) | 2.6 | pKa (physchem [2]): 3.57
30 | O=C(c1ccc(O)cc1)c1ccc2n1CCC2C(=O)O (configuration not stated) [P-HYDROXY KETOROLAC] | 2.17 | –
31 | CC(C)Oc1ccc(C(=O)c2ccc3n2CCC3C(=O)O)cc1 (configuration not stated) | 3.38 | pKa (physchem [2]): 3.43
32 | O=C(c1ccc2n1CCC2C(=O)O)C1CCC1 (configuration not stated) | 2.41 | pKa (physchem [2]): 3.54
33 | COc1ccc(C(=O)c2ccc3n2CCC3C(=O)O)cc1 (configuration not stated) [ANIROLAC] | 2.81 | selectivity ratio (in vivo): 39; pKa (physchem [2]): 3.55; ED50 (Mus musculus [4]): 70 mg/kg; ED30 (Rattus norvegicus [5]): 3 mg/kg; ED30 (Rattus norvegicus [6]): 15 mg/kg; ED50 (Rattus norvegicus [7]): 22 mg/kg/day; minimal effective dose (Rattus norvegicus [8]): 7 mg/kg/day; ED50 (Rattus norvegicus [9]): 1.7 mg/kg
34 | Cc1ccc(C(=O)c2ccc3n2CCCC3C(=O)O)cc1 (configuration not stated) | 3.35 | –
35 | CSc1ccc(C(=O)c2ccc3n2CCCC3C(=O)O)cc1 (configuration not stated) | 3.54 | –
36 | O=C(c1ccc(F)cc1)c1ccc2n1CCC2C(=O)O (configuration not stated) | 2.82 | Activity (Rattus norvegicus [11]): 1; selectivity ratio (in vivo): 20; pKa (physchem [2]): 3.51; ED50 (Mus musculus [4]): 70 mg/kg; ED30 (Rattus norvegicus [5]): 3 mg/kg; ED30 (Rattus norvegicus [6]): 15 mg/kg; ED50 (Rattus norvegicus [7]): 13 mg/kg/day; minimal effective dose (Rattus norvegicus [8]): 5 mg/kg/day; ED50 (Rattus norvegicus [9]): 1.7 mg/kg

Further lines, with some results ahead:

Row | logP (physchem [1]) | Compound | further results
37 | 2.98 | O=C(c1ccccc1I)c1ccc2n1CCC2C(=O)O (configuration not stated) | –
38 | 3.61 | O=C(c1ccc2c(c1)OCO2)c1ccc2n1CCC2C(=O)O (configuration not stated) | –
39 | 2.21 | N#Cc1ccc(C(=O)c2ccc3n2CCC3C(=O)O)cc1 (configuration not stated) | –
40 | 3.23 | Cc1cccc(C(=O)c2ccc3n2CCC3C(=O)O)c1 (configuration not stated) | pKa (physchem [2]): 3.44
41 | 3.45 | O=C(c1ccc(Cl)cc1)c1ccc2n1CC(C(=O)O)C2 (configuration not stated) | –
42 | 2.9 | Cc1ccccc1C(=O)c1ccc2n1CCC2C(=O)O (configuration not stated) | pKa (physchem [2]): 3.44
43 | 3.92 | CSc1ccc(C(=O)c2ccc3n2CCCCC3C(=O)O)cc1 (configuration not stated) | –
44 | 2.47 | O=C(c1cccc([N+](=O)[O-])c1)c1ccc2n1CCC2C(=O)O (configuration not stated) | –
45 | 1.53 | CS(=O)(=O)c1ccc(C(=O)c2ccc3n2CCCC3C(=O)O)cc1 (configuration not stated) | –
46 | 3.24 | O=C(c1c(F)c(F)c(F)c(F)c1F)c1ccc2n1CCC2C(=O)O (configuration not stated) | –
47 | 2.61 | O=C(c1cccc(Cl)c1)c1ccc2n1CCCC2C(=O)O (configuration not stated) | –
48 | 2.48 | O=C(c1ccc([N+](=O)[O-])cc1)c1ccc2n1CCC2C(=O)O (configuration not stated) | –
49 | 2.94 | O=C(c1ccc(F)cc1)c1ccc2n1CCCC2C(=O)O (configuration not stated) | –
50 | 3.68 | CSc1ccc(C(=O)c2ccc3n2CCC3C(=O)O)cc1 (configuration not stated) | –
51 | 2.47 | O=C(c1c(F)cccc1F)c1ccc2n1CCC2C(=O)O (configuration not stated) | –
52 | 4.27 | O=C(c1ccc(-c2ccccc2)cc1)c1ccc2n1CCC2C(=O)O (configuration not stated) | –
53 | 3.71 | O=C(c1ccc(C(F)(F)F)cc1)c1ccc2n1CCC2C(=O)O (configuration not stated) | –
54 | 3.31 | CCOc1cccc(C(=O)c2ccc3n2CCC3C(=O)O)c1 (configuration not stated) | pKa (physchem [2]): 3.46
55 | 1.41 | CS(=O)(=O)c1ccc(C(=O)c2ccc3n2CCC3C(=O)O)cc1 (configuration not stated) | –
